Source: the NIST ThermoML archive (doi:10.1016/j.jct.2016.05.021)

Tests used:
[1] = xn = mol fraction of the nth substance listed; details: 100 kPa, Liquid; for speed of sound: Frequency=3 MHz, Sing-around technique in a fixed-path interferometer; for mass density: Vibrating tube method
[2] = refractive index (Na D-line) (dimensionless); xn = mol fraction of the nth substance listed; details: 100 kPa, Liquid, Standard Abbe refractometry

O=C1CCCN1 [2-pyrrolidinone] + CCCC[n+]1ccn(C)c1.O=S(=O)([N-]S(=O)(=O)C(F)(F)F)C(F)(F)F
Details	mass density, [1] [kg/m3]	refractive index, [2]	speed of sound, [1] [m/s]
298.15 K, x2 = 0	1107.16	1.48591	1634.3
298.15 K, x2 = 0.1242	1204.09	1.46742	1491.9
298.15 K, x2 = 0.22	1253.58	1.45836	1431.2
298.15 K, x2 = 0.3191	1292.55	1.45142	1387.3
298.15 K, x2 = 0.4048	1320.08	1.44661	1357.6
298.15 K, x2 = 0.51	1348.24	1.44176	1327.5
298.15 K, x2 = 0.5945	1367.5	1.43844	1306.9
298.15 K, x2 = 0.7171	1391.3	1.4343	1280.2
298.15 K, x2 = 0.8383	1411.52	1.43075	1256.7
298.15 K, x2 = 0.9084	1421.66	1.42892	1244
303.15 K, x2 = 0	1103.07	1.48403	1617.7
303.15 K, x2 = 0.1242	1198.66	1.46576	1477.1
303.15 K, x2 = 0.22	1248.02	1.45679	1417
303.15 K, x2 = 0.3191	1287.03	1.44988	1373.5
303.15 K, x2 = 0.4048	1314.63	1.4451	1344.4
303.15 K, x2 = 0.51	1342.88	1.44028	1314.7
303.15 K, x2 = 0.5945	1362.18	1.43699	1294.3
303.15 K, x2 = 0.7171	1386.09	1.43286	1268.1
303.15 K, x2 = 0.8383	1406.4	1.42932	1244.9
303.15 K, x2 = 0.9084	1416.7	1.42747	1232.4
308.15 K, x2 = 0	1098.99	1.48218	1602.3
308.15 K, x2 = 0.1242	1193.23	1.46414	1462.9
308.15 K, x2 = 0.22	1242.46	1.45525	1403.4
308.15 K, x2 = 0.3191	1281.51	1.44835	1360.3
308.15 K, x2 = 0.4048	1309.18	1.44359	1331.3
308.15 K, x2 = 0.51	1337.52	1.43881	1302.1
308.15 K, x2 = 0.5945	1356.86	1.43554	1281.8
308.15 K, x2 = 0.7171	1380.88	1.43142	1255.9
308.15 K, x2 = 0.8383	1401.28	1.42789	1233.1
308.15 K, x2 = 0.9084	1411.74	1.426	1221
313.15 K, x2 = 0	1094.9	1.48033	1585.4
313.15 K, x2 = 0.1242	1187.79	1.46253	1448.4
313.15 K, x2 = 0.22	1236.9	1.4537	1389.4
313.15 K, x2 = 0.3191	1275.99	1.44683	1346.9
313.15 K, x2 = 0.4048	1303.73	1.44209	1318.2
313.15 K, x2 = 0.51	1332.16	1.43733	1289.4
313.15 K, x2 = 0.5945	1351.54	1.43407	1269.4
313.15 K, x2 = 0.7171	1375.67	1.42997	1244
313.15 K, x2 = 0.8383	1396.16	1.42645	1221.8
313.15 K, x2 = 0.9084	1406.78	1.42456	1209.8
318.15 K, x2 = 0	1090.82	1.47841	1569.4
318.15 K, x2 = 0.1242	1182.35	1.46087	1434.3
318.15 K, x2 = 0.22	1231.34	1.45212	1375.9
318.15 K, x2 = 0.3191	1270.47	1.44527	1333.8
318.15 K, x2 = 0.4048	1298.28	1.44057	1305.5
318.15 K, x2 = 0.51	1326.8	1.43584	1276.9
318.15 K, x2 = 0.5945	1346.22	1.43261	1257.2
318.15 K, x2 = 0.7171	1370.46	1.42853	1232.2
318.15 K, x2 = 0.8383	1391.04	1.42499	1210.4
318.15 K, x2 = 0.9084	1401.82	1.42312	1198.6
323.15 K, x2 = 0	1086.75	1.47649	1553.5
323.15 K, x2 = 0.1242	1176.91	1.4592	1420.2
323.15 K, x2 = 0.22	1225.78	1.45051	1362.6
323.15 K, x2 = 0.3191	1264.95	1.44369	1320.9
323.15 K, x2 = 0.4048	1292.83	1.43902	1292.9
323.15 K, x2 = 0.51	1321.44	1.43432	1264.6
323.15 K, x2 = 0.5945	1340.9	1.4311	1245.2
323.15 K, x2 = 0.7171	1365.25	1.42704	1220.5
323.15 K, x2 = 0.8383	1385.92	1.42352	1199.1
323.15 K, x2 = 0.9084	1396.86	1.42164	1187.6
